From patent US5620676A, “Biologically active ATP analogs” (priority 1995, dated 1997)
“Also recorded” adds a separate entry of the source. Read-outs that look alike come from different tables or passages of the source.

Assays:
[1] = target: T1, P2X receptor (urinary bladder) (Cavia porcellus, UniProt A0A286XVA9); assay: Contraction of guinea pig isolated urinary bladder detrussor muscle; details: guinea pig urinary bladder
T1 construct: guinea pig isolated urinary bladder detrussor muscle; from tissue; host or cells: guinea pig isolated urinary bladder detrusor muscle

[2] = target: T2, P2Y receptor (taenia coli) (Cavia porcellus, UniProt P59902); assay: Relaxation of carbachol-contracted guinea pig taenia coli
T2 construct: Relaxant responses mediated via P2Y receptors were examined in guinea pig taenia coli; from tissue; host or cells: guinea pig taenia coli (carbachol-contracted)
Description: (§1) Muscular relaxation/contraction: Relaxant responses mediated via P2Y receptors were examined in guinea pig taenia coli, rabbit aorta, and rabbit mesenteric artery, as described by Hoyle et al. (Br. J. Pharmacol., 107, 367-374 (1992a)), Burnstock et al., (Br. J. Pharmacol., 90, 383-391 (1987a)), and Rubino et al., (Eur. J. Pharmacol., 212, 237-240 (1992)). Contractile responses mediated via P2X receptors were examined in the guinea pig urinary bladder and vas deferens, and rabbit saphenous artery, also using standard methods (see Hoyle et al., supra., 1992; Hoyle et al., Br. J. Pharmacol., 99, 617-621 (1990); and Burnstock et al., Br. J. Pharmacol., 90, 111-120 (1987b)).
Muscular relaxation assays were performed as recited in Example 3. […] All curves are the mean of two determinations except for 5'-ATP (n=38), 2-hexylthio-ATP (n=4), 2-(5-hexenyl)thio-ATP (n=3), and 2-(2-4-nitrophenylethyl)thio-AMP (n=5). […] The pD2 value for 2-methylthio-ATP is 8.0±0.15, as reported by Hoyle et al., in Receptor Data for Biological Experiments, (H. N. Doods and J. C. A. Van Meel, eds., 1992b) at pp. 54-61.
(§2) Phospholipase C activity and muscle relaxation/contraction effects were assessed using the methods recited in Example 3. In FIGS. 10-12, which present the result of assays of phospholipase C activity in turkey erythrocyte membranes, the x-axis is marked in units of the log of the molar concentration of the putative P2Y receptor agonist tested and the y-axis is marked in units of the percentage of maximum production of [^3 H]-inositol phosphate generated. In FIG. 13, the x-axis is marked in units of the negative log of the molar concentration of applied putative P2Y receptor agonists and the y-axis is marked in units of the percentage relaxation of the 50 nM carbachol-induced contraction of guinea pig taenia coli. In FIG. 14, the x-axis is also marked in units of the negative log of the molar concentration of applied putative P2Y receptor agonists and the y-axis is marked in units of the percentage relaxation of the 1 μM noradrenalin-induced contraction of rabbit aorta endothelium. In FIGS. 15-16, the x-axis is marked in units of the negative log of the molar concentration of applied putative p^2X receptor agonists and the y-axis is marked in units of the percentage contraction relative to a standard dose of KCl (i.e., 60 mM), as assessed in guinea pig isolated urinary bladder detrussor muscle (FIG. 15) and guinea pig isolated vas deferens (FIG. 16).

[3] = target: T3, P2X receptor (vas deferens) (Cavia porcellus, UniProt A0A286XVA9); assay: Contraction of guinea pig isolated vas deferens
T3 sequence (A0A286XVA9 1-399): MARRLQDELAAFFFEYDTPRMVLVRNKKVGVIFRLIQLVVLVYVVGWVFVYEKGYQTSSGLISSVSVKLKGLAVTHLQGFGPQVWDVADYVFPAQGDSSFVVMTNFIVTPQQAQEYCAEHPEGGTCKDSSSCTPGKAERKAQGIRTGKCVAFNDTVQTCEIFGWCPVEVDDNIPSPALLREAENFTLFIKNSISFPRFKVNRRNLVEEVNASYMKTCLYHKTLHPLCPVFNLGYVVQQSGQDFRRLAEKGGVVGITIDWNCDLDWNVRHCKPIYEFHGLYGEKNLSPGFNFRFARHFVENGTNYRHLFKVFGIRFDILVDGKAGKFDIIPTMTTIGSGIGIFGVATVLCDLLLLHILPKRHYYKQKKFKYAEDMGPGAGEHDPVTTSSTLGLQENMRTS

[4] = target: T4, P2Y receptor (turkey erythrocyte membranes) (Meleagris gallopavo, UniProt P49652); assay: Stimulation of phospholipase C (inositol phosphate formation) in turkey erythrocyte membranes; assay type: biochemical; details: for activity/potency in words, turkey erythrocyte / EC50: turkey erythrocyte membranes
T4 construct: from tissue; host or cells: washed turkey erythrocytes, ghosts prepared by hypotonic lysis
Description: Phospholipase C activity: Stimulation of inositol phosphate formation by compounds of the present invention was measured in turkey erythrocyte membranes as described by Harden et al., supra and Boyer et al., supra. The K0.5 values were averaged from 3-8 independently determined dose-response curves for each compound. Briefly, one ml of washed turkey erythrocytes was incubated in inositol-free medium (DMEM; Gibco) with 0.5-1 mCi of 2-[^3 H]myoinositol (20 Ci/mmol; American Radiolabeled Chemicals Inc., St. Louis, Mo.)for 18-24 h in a humidified atmosphere of 95% air 5% CO2 at 37° C. Erythrocyte ghosts were prepared by rapid lysis in hypotonic buffer (5 mM sodium phosphate, pH 7.4, 5 mM MgCl2, 1 mM EGTA) as described by Boyer et al., supra. Phospholipase C activity was measured in 25 μl of [^3 H]inositol-labeled ghosts (≈175 μg of protein, 200-500,000 cpm/assay) in a medium containing 424 μM CaC12, 0.91 mM MgSO4, 2 mM EGTA, 115 mM KCl, 5 mM KH2 PO4, and 10 mM Hepes, pH 7.0. Assay (100 μl or 200 μl final volume) contained 1 μM GTPγS and the indicated concentrations of nucleotide analogs. Ghosts were incubated at 30° C. for 5 min, and total [^3 H]inositol phosphates were quantitated after purification by anion exchange chromatography according to Harden et al. (supra) and Boyer et al. (supra).
as §2

[5] = target: T5, P2X receptor (saphenous artery) (Oryctolagus cuniculus, UniProt G1U3D6); assay: Contraction of rabbit saphenous artery; details: for activation at 10 µM: read-out: response at 10 μM relative to the contraction produced by 1 μM α,MeATP, saph. artery
T5 construct: and rabbit saphenous artery; from tissue; host or cells: rabbit saphenous artery
T5 sequence (G1U3D6 1-399): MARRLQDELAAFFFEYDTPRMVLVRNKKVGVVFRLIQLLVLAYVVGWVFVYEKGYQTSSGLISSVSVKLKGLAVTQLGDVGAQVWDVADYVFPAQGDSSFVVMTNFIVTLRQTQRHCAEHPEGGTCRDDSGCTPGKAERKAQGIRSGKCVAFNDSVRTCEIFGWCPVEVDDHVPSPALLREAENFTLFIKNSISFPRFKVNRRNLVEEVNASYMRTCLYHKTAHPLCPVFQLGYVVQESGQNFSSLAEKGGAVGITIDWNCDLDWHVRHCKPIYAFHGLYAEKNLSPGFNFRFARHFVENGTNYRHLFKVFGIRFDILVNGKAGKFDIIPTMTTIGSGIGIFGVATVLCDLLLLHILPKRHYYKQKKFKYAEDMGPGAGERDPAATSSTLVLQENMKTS
Description: as §1
^c For the saphenous artery, the percentages in brackets are response
at 10 μM relative to the contraction produced by 1 μM α,MeATP
ATP in this assay is very weak (EC50 =
1.78 mM). The highest concentrations of the analogues tested were 3-30

[6] = target: P2Y receptor (mesenteric artery); assay: Relaxation of rabbit mesenteric artery; details: for relaxation pD2, mes. artery: log molar units
[7] = system: P2Y receptor (aorta endothelium); assay: Relaxation of noradrenalin-contracted rabbit aorta; details: for activity/potency/selectivity in words, aorta: rabbit aorta endothelial P2Y receptor; for relaxation pD2, aorta: rabbit aorta, log molar units
[8] = guinea pig taenia coli, log molar units, read-out: relaxation pD2, taenia coli (converted)
[9] = mean ± S.E.M. for at least 2 determinations, read-out: phosphatidyl inositol metabolism (K0.5, nM) erythrocyte

T2 sequence (P59902 whole entry): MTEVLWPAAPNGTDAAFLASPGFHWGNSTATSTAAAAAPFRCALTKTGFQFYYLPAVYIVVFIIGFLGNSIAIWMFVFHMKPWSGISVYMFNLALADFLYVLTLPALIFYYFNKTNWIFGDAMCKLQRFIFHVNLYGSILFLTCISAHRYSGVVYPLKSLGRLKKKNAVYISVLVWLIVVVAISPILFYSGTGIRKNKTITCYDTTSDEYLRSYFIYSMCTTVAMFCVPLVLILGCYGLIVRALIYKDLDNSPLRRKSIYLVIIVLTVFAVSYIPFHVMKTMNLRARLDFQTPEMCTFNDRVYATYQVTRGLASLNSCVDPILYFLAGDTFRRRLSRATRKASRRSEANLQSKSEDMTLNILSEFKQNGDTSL
T4 sequence (P49652 whole entry): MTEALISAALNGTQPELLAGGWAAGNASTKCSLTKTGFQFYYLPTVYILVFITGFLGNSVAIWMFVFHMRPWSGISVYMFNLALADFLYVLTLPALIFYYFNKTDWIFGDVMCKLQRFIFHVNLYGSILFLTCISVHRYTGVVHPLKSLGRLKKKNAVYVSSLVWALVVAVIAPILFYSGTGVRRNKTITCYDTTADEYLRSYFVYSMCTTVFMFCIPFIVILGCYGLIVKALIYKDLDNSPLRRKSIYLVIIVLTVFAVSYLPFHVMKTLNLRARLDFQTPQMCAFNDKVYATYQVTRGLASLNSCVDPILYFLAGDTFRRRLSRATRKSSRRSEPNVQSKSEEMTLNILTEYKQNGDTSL

SMILES | activity/potency in words, bladder [1] | activity/potency in words, taenia coli ([2]; guinea pig taenia coli) | activity/potency in words, vas deferens [3] | activity/potency in words, turkey erythrocyte [4] | EC50 [4, 9] [nM] | relaxation pD2, mes. artery [6] | further results
Nc1ncnc2c1ncn2[C@H]1CC[C@@H](COP(=O)(O)OP(=O)(O)OP(=O)(O)O)O1 [2',3'-Dideoxy-ATP, 2',3'-dideoxy-ATP, reference compound] | >ATP | as potent as ATP at taenia coli P2Y receptors | ≈ATP | weakly active at turkey erythrocyte P2Y receptors | 70800 |  | EC50 [2, 8]: 10 µM
N#CCCCCCCSc1nc(N)c2ncn([C@@H]3O[C@H](COP(=O)(O)O)[C@@H](O)[C@H]3O)c2n1 [2-(6-Cyanohexyl)thio-AMP, 2-(6-cyanohexylthio)-AMP] |  |  |  |  | 37000 | 6.2 | activation at 10 µM ([5]; rabbit saphenous artery, 10 μM): 4.5%; EC50 [2]: 39.8 µM; EC50 ([4]; read-out: K0.5): 37000 nM
CC(=O)N[C@H]1[C@@H](O)[C@H](n2cnc3c(N)ncnc32)O[C@@H]1COP(=O)(O)OP(=O)(O)OP(=O)(O)O [3'-Acetylamino-3'deoxy-ATP, 3'-Acetylamino-3'-deoxyadenosine 5'-triphosphate] | more or less as potent as ATP; also recorded: active in the vas deferens and urinary bladder | nearly inactive | more or less as potent as ATP; also recorded: active in the vas deferens and urinary bladder | nearly inactive | > 100000 |  | activity/potency in words, saphenous artery ([5]; rabbit saphenous artery): inactive in the saphenous artery; activity/potency/selectivity in words, aorta [7]: inactive at 10 μM at rabbit aorta P2Y receptors; activity/potency in words, mesenteric artery ([6]; listed as 3'-Acetylamino-3'-deoxy-ATP): more potent than ATP at rabbit mesenteric artery P2Y receptors; activity/potency in words, mesenteric artery ([6]; listed as 3'-acetylamino-3'-deoxy-ATP): the only P2Y receptor which had any appreciable activity was that in the rabbit mesenteric artery
Nc1ncnc2c1ncn2[C@@H]1O[C@H](COP(=O)(O)OP(=O)(O)OP(=O)(O)O)[C@@H](NC(=O)CCc2ccc(O)cc2)[C@H]1O [3'-[3-(p-Hydroxyphenyl)propionylamino]-3'-deoxyadenosine 5'-triphosphate] | more or less as potent as ATP | nearly inactive | more or less as potent as ATP | nearly inactive | > 100000 |  | activity/potency in words, saphenous artery ([5]; rabbit saphenous artery): inactive in the saphenous artery; activity/potency/selectivity in words, aorta ([7]; listed as 3'-[3-(4-hydroxyphenyl)-propionylamino]-3'-deoxy-ATP): considerably more potent than ATP in the aorta; activity/potency/selectivity in words, aorta ([7]; listed as 3-(p-Hydroxyphenyl-propionylamino-3'-deoxy-ATP)): a high degree of selectivity for the aortic endothelial P2Y receptor; activity/potency in words, mesenteric artery [6]: inactive in the mesenteric artery
Nc1ncnc2c1ncn2[C@@H]1O[C@H](COP(=O)(O)O)[C@@H](O)[C@H]1O [AMP, adenosine 5'-monophosphate, reference compound] | inactive | much less potent | without effect | inactive |  | 5.0 | relaxation pD2, aorta [7]: 4.8; activation at 100 µM ([4]; 5 min, at 10^-4 M, read-out: % stimulation at concentration indicated): 4 ± 2%
C=CCCCCSc1nc(NC)c2ncn([C@@H]3O[C@H](COP(=O)(O)O)[C@@H](O)[C@H]3O)c2n1 [N^6 -Me-2-(5-hexenyl)-thio-AMP, N^6 -Me-2-(5-hexenylthio)adenosine monophosphate] |  |  |  |  | > 100000 |  | activation at 10 µM ([5]; rabbit saphenous artery, 10 μM): 6.7%
O=c1ccn([C@@H]2O[C@H](COP(=O)(O)OP(=O)(O)OP(=O)(O)O)[C@@H](O)[C@H]2O)c(=O)[nH]1 [UTP, reference compound] | as potent as or more potent than ATP in the bladder |  | without effect in the vas deferens |  | 143000 | 6.7 | EC50 [2, 8]: 316 µM; relaxation pD2, aorta [7]: 4.8
Nc1ncnc2c1ncn2[C@@H]1O[C@H](COP(=O)(O)OP(=O)(O)CP(=O)(O)O)[C@@H](O)[C@H]1O [β,γ-Me-ATP, β,γ-methylene-ATP, reference compound] | markedly enhanced activity | reduced activity in the taenia coli | markedly enhanced activity | nearly inactive at ≥100 μM |  |  | activation at 10 µM [5]: 89%; EC50 ([4]; phosphatidyl inositol metabolism (K0.5, nM) erythrocyte, mean ± S.E.M. for at least 2 determinations): > 100000 nM
